According to US20240417410A1, “TRICYCLIC COMPOUNDS FOR THE TREATMENT OF CANCER” (Hoffmann-La Roche Inc., priority 2023, published 2024):

Experiments:
[1] = target: KRAS G12C-BRAF complex (Homo sapiens (Human), UniProt P01116+P62937, G12C); assay: KRAS-BRAF with CYPA (500 nM) interaction assay (TR-FRET, Example 136); type: biochemical; conditions: KRAS G12C-BRAF disruption
[2] = tested on: phosphorylation of ERK, KRAS G12C in NCI-H358 cells; assay: pERK inhibition assay; type: cell-based
Summary of the method: (§1)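 NCI-H358 (KRAS G12C), AGS (G12D) and SW620 (G12V) cells plated overnight, then treated with compound for 4 h in 0.5% DMSO. After fixing and methanol permeabilisation, phospho-ERK was detected by in-cell ELISA (HRP/TMB, OD450). IC50 from a 4-parameter sigmoidal fit.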

[3] = tested on: phosphorylation of ERK, KRAS G12V in SW620; assay: pERK inhibition assay; type: cell-based; conditions: SW620 cells
Summary of the method: as §1

[4] = tested on: phosphorylation of ERK, KRAS G12D in AGS cells; assay: pERK inhibition assay; type: cell-based
Summary of the method: as §1

[5] = tested on: AGS cells (KRAS G12D); assay: Cell viability assay (Cell Counting Kit-8, 3-day); type: cell-based, human; conditions: 72 hrs incubation
Summary of the method: (§2)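 IC50 derived by 4-parameter sigmoidal fit of CCK-8 signal (OD450−OD650, 2 h development) after 72 h compound exposure in 0.5% DMSO. Seeding density was 5,000 cells/well for NCI-H358 and 2,000 cells/well for AGS and SW620, plated overnight before dosing.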

[6] = tested on: NCI-H358 cells (KRAS G12C); assay: Cell viability assay (Cell Counting Kit-8, 3-day); type: cell-based, human; conditions: NCI-H358, 72 hrs incubation
Summary of the method: as §2

[7] = tested on: SW620 cells (KRAS G12V); assay: Cell viability assay (Cell Counting Kit-8, 3-day); type: cell-based, human; conditions: SW620, 72 hrs incubation
Summary of the method: as §2

Chain of KRAS G12C-BRAF complex (P01116-2 other isoform, or with tags, fused parts or gaps G12C): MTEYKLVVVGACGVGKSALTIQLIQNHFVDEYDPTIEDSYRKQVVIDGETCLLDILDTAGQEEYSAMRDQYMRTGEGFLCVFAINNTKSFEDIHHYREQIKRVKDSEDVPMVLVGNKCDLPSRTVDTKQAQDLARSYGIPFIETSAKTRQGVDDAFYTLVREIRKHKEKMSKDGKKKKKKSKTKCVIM
Chain of KRAS G12C-BRAF complex (P62937 whole entry): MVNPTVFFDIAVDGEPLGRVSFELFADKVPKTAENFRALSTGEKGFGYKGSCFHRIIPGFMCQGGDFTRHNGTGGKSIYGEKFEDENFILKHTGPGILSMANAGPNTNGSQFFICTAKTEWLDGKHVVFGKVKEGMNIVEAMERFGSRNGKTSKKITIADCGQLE

SMILES | IC50 [1] [nM] | IC50 ([2]; Homo sapiens, NCI-H358, 4 h) [nM] | IC50 ([3]; Homo sapiens, SW-620, 4 h) [nM] | IC50 ([4]; Homo sapiens, AGS, 4 h) [nM] | IC50 ([5]; Homo sapiens, 72 h) [nM] | IC50 ([6]; Homo sapiens, NCI-H358, 72 h) [nM] | IC50 ([7]; Homo sapiens, SW-620) [nM] | IC50 ([2]; 4 hours) [nM] | IC50 ([3]; 4 hours) [nM] | IC50 ([4]; 4 hours) [nM] | IC50 [5] [nM] | IC50 [6] [nM] | IC50 [7] [nM]
CO[C@@H](C)c1ncc(N2CCN3CCOC[C@@H]3C2)cc1-c1c2c3cc(cc4c3n1CCC4)-c1csc(n1)C[C@H](NC(=O)[C@H]1[C@@H]3COC[C@@H]31)C(=O)N1CCC[C@H](N1)C(=O)OCC(C)(C)C2 (atropisomer, axis not shown; (M)) [Example 40, (1S,5R,6r)-N-[(7S,13S)-(20M)-20-[5-[(9αS)-3,4,6,7,9,9a-hexahydro-1H-pyrazino[2,1-c][1,4]oxazin-8-yl]-2-[(1S)-1-methoxyethyl]-3-pyridyl]-17,17-dimethyl-8,14-dioxo-15-oxa-4-thia-9,21,30,31-tetrazahexacyclo[23.3.1.1^2,5.1^9,13.0^19,27.0^21,26]hentriaconta-1 (28),2,5 (31),19,25 (29),26-hexaen-7-yl]-3-oxabicyclo[3.1.0]hexane-6-carboxamide] | 13 | 0.6 | 0.4 | 5.6 | 11.8 | 3 | 0.8 | – | – | – | – | – | –
CO[C@@H](C)c1ncc(N2CCN(C)CC2)cc1-c1c2c3cc(cc4c3n1CCO4)-c1csc(n1)C[C@H](NC(=O)[C@@H]1C[C@H]1C1CC1)C(=O)N1CCC[C@H](N1)C(=O)OCC(C)(C)C2 (atropisomer, axis not shown; (M)) [Example 64, (1R,2S)-2-cyclopropyl-N-[(7S,13S)-(20M)-20-[2-[(1S)-1-methoxyethyl]-5-(4-methylpiperazin-1-yl)-3-pyridyl]-17,17-dimethyl-8,14-dioxo-15,24-dioxa-4-thia-9,21,30,31-tetrazahexacyclo[23.3.1.1^2,5.1^9,13.0^19,27.0^21,26]hentriaconta-1 (29),2,5 (31), 19,25,27-hexaen-7-yl]cyclopropanecarboxamide] | 17.2 | 1.2 | 0.6 | 3.7 | 21.9 | 8 | 1.3 | – | – | – | – | – | –
CO[C@@H](C)c1ncc(N2CCN(CCF)CC2)cc1-c1c2c3cc(cc4c3n1CCC4)-c1csc(n1)C[C@H](NC(=O)[C@H]1[C@H](C)[C@@H]1C)C(=O)N1CCC[C@H](N1)C(=O)OCC(C)(C)C2 (atropisomer, axis not shown; (M)) [Example 110, (1r,2R,3S)-N-[(7S,13S)-(20M)-20-[5-[4-(2-fluoroethyl)piperazin-1-yl]-2-[(1S)-1-methoxyethyl]-3-pyridyl]-17,17-dimethyl-8,14-dioxo-15-oxa-4-thia-9,21,30,31-tetrazahexacyclo[23.3.1.1^2,5.1^9,13.0^19,27.0^21,26]hentriaconta-1 (28),2,5 (31), 19,25 (29),26-hexaen-7-yl]-2,3-dimethyl-cyclopropanecarboxamide] | 4.9 | 0.7 | 0.3 | 2.6 | 2.6 | 1.8 | 0.4 | – | – | – | – | – | –
CO[C@@H](C)c1ncc(N2CCN(CCOC3CCOC3)CC2)cc1-c1c2c3cc(cc4c3n1CCC4)-c1csc(n1)C[C@H](NC(=O)[C@H]1[C@H](C)[C@@H]1C)C(=O)N1CCC[C@H](N1)C(=O)OCC(C)(C)C2 (stereo partly drawn) [Example 122, (1r,2R,3S)-N-[(7S,13S)-(20M)-20-[2-[(1S)-1-methoxyethyl]-5-[4-(2-tetrahydrofuran-3-yloxyethyl)piperazin-1-yl]-3-pyridyl]-17,17-dimethyl-8,14-dioxo-15-oxa-4-thia-9,21,30,31-tetrazahexacyclo[23.3.1.1^2,5.1^9,13.0^19,27.0^21,26]hentriaconta-1 (28),2,5 (31), 19,25 (29),26-hexaen-7-yl]-2,3-dimethyl-cyclopropanecarboxamide] | 15.1 | 0.6 | 0.2 | 3.5 | 3.4 | 1.8 | 0.5 | – | – | – | – | – | –
COC(C)c1ncc(N2CCN(C)CC2)cc1-c1c2c3cc(cc4c3n1CCO4)-c1csc(n1)CC(NC(=O)C1CC1C)C(=O)N1CCCC(N1)C(=O)OCC(C)(C)C2 [Example 17, (1S,2S)-N-[(7S,13S)-(20M)-20-[2-[(1S)-1-methoxyethyl]-5-(4-methylpiperazin-1-yl)-3-pyridyl]-17,17-dimethyl-8,14-dioxo-15,24-dioxa-4-thia-9,21,30,31-tetrazahexacyclo[23.3.1.1^2,5.1^9,13.0^19,27.0^21,26]hentriaconta-1 (28),2,5 (31),19,25 (29),26-hexaen-7-yl]-2-methyl-cyclopropanecarboxamide] | 25.4 | – | – | – | – | – | – | 2.9 | 1.8 | 2.7 | 21.7 | 10.3 | 1.1
CO[C@@H](C)c1ncc(N2CCOCC2)cc1-c1c2c3cc(cc4c3n1CCO4)-c1csc(n1)C[C@H](NC(=O)[C@H]1C[C@@H]1C(F)F)C(=O)N1CCC[C@H](N1)C(=O)OCC(C)(C)C2 (atropisomer, axis not shown; (M)) [Example 9, (1S,2S)-2-(difluoromethyl)-N-[(7S,13S)-(20M)-20-[2-[(1S)-1-methoxyethyl]-5-morpholino-3-pyridyl]-17,17-dimethyl-8,14-dioxo-15,24-dioxa-4-thia-9,21,30,31-tetrazahexacyclo[23.3.1.1^2,5.1^9,13.0^19,27.0^21,26]hentriaconta-1 (28),2,5 (31), 19,25 (29),26-hexaen-7-yl]cyclopropanecarboxamide] | 21.1 | 2.3 | 0.8 | 1.8 | 7.6 | 2.8 | < 0.6 | – | – | – | – | – | –
CO[C@@H](C)c1ncc(N2CCN(C)CC2)cc1-c1c2c3cc(cc4c3n1CCC4)-c1csc(n1)C[C@H](NC(=O)[C@H]1C[C@@H]1c1ccncn1)C(=O)N1CCC[C@H](N1)C(=O)OCC(C)(C)C2 (atropisomer, axis not shown; (M)) [Example 50, (1S,2S)-N-[(7S,13S)-(20M)-20-[2-[(1S)-1-methoxyethyl]-5-(4-methylpiperazin-1-yl)-3-pyridyl]-17,17-dimethyl-8,14-dioxo-15-oxa-4-thia-9,21,30,31-tetrazahexacyclo[23.3.1.1^2,5.1^9,13.0^19,27.0^21,26]hentriaconta-1 (28),2,5 (31), 19,25 (29),26-hexaen-7-yl]-2-pyrimidin-4-yl-cyclopropanecarboxamide] | 22 | 3.5 | 2.4 | 20.1 | 72.6 | 24.1 | 3.8 | – | – | – | – | – | –
CO[C@@H](C)c1ncc(N2CCOCC2)cc1-c1c2c3cc(cc4c3n1C[C@@H](O)C4)-c1csc(n1)C[C@H](NC(=O)[C@H]1[C@H](C)[C@@H]1C)C(=O)N1CCC[C@H](N1)C(=O)OCC(C)(C)C2 (atropisomer, axis not shown; (M)) [Example 107, (1r,2R,3S)-N-[(7S,13S,23S)-23-hydroxy-(20M)-20-[2-[(1S)-1-methoxyethyl]-5-morpholino-3-pyridyl]-17,17-dimethyl-8,14-dioxo-15-oxa-4-thia-9,21,30,31-tetrazahexacyclo[23.3.1.1^2,5.1^9,13.0^19,27.0^21,26]hentriaconta-1 (28),2,5 (31),19,25 (29),26-hexaen-7-yl]-2,3-dimethyl-cyclopropanecarboxamide] | 47.6 | 2.7 | 1.5 | 7.4 | 5.4 | 8.4 | 1.2 | – | – | – | – | – | –
CO[C@@H](C)c1ncc(N2CCN(C)CC2)cc1-c1c2c3cc(cc4c3n1CC(C)(C)C4)-c1csc(n1)C[C@H](NC(=O)[C@H]1[C@H](C)[C@@H]1C)C(=O)N1CCC[C@H](N1)C(=O)OCC(C)(C)C2 (atropisomer, axis not shown; (M)) [Example 69, (1r,2S,3R)-N-[(7S,13S)-(20M)-20-[2-[(1S)-1-methoxyethyl]-5-(4-methylpiperazin-1-yl)-3-pyridyl]-17,17,23,23-tetramethyl-8,14-dioxo-15-oxa-4-thia-9,21,30,31-tetrazahexacyclo[23.3.1.1^2,5.1^9,13.0^19,27.0^21,26]hentriaconta-1 (28),2,5 (31), 19,25 (29),26-hexaen-7-yl]-2,3-dimethyl-cyclopropanecarboxamide] | 35.7 | 1.5 | 1.5 | 11.3 | 75.4 | 19.2 | 4.4 | – | – | – | – | – | –
